Test results from paper PMC3179181 (Journal of medicinal chemistry, 2010).
Entries after “also recorded” stand apart in the source; their conditions may differ.

What was measured:
[1] = test system: Caspase 3 and 7; assay: Caspase 3/7 activity; assay type: cell-based; settings: 48 hours, 10 μM, versus vehicle; for Caspase 3 and 7 activity: serum free
[2] = target: T1, PLD2 (Homo sapiens, UniProt O14939); assay: cell-based
[3] = target: T2, PLD1 (Homo sapiens, UniProt Q13393); assay: cell-based
T2 sequence (Q13393 1-1074): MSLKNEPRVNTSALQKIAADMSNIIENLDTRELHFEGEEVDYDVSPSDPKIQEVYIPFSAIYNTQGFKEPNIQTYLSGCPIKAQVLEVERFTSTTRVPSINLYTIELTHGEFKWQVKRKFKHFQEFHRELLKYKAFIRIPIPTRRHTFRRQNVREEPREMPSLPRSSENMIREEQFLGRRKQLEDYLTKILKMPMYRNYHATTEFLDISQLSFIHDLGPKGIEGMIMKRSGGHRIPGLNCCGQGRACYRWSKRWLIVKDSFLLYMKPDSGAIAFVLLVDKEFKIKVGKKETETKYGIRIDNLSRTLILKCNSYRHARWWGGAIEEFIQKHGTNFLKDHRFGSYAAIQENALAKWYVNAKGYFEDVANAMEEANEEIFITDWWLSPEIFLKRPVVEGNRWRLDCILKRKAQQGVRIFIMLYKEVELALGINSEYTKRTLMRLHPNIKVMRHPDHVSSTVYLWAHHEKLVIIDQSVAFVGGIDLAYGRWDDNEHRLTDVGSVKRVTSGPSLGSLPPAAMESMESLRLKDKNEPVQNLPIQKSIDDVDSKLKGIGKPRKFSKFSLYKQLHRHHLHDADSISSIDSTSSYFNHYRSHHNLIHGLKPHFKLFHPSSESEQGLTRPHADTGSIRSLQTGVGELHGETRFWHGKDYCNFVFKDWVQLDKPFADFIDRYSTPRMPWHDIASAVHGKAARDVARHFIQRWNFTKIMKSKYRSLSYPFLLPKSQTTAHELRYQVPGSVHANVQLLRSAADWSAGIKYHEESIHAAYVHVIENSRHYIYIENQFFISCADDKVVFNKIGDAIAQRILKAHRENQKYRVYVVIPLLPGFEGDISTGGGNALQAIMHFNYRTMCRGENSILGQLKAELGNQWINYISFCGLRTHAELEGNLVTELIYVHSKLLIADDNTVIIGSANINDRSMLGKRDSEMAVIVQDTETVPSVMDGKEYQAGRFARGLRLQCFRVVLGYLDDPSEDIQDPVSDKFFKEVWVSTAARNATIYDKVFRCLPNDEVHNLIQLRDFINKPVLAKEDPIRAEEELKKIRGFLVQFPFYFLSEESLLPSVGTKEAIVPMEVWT

[4] = target: T1, PLD2
[5] = rat

T1 sequence (O14939 whole entry): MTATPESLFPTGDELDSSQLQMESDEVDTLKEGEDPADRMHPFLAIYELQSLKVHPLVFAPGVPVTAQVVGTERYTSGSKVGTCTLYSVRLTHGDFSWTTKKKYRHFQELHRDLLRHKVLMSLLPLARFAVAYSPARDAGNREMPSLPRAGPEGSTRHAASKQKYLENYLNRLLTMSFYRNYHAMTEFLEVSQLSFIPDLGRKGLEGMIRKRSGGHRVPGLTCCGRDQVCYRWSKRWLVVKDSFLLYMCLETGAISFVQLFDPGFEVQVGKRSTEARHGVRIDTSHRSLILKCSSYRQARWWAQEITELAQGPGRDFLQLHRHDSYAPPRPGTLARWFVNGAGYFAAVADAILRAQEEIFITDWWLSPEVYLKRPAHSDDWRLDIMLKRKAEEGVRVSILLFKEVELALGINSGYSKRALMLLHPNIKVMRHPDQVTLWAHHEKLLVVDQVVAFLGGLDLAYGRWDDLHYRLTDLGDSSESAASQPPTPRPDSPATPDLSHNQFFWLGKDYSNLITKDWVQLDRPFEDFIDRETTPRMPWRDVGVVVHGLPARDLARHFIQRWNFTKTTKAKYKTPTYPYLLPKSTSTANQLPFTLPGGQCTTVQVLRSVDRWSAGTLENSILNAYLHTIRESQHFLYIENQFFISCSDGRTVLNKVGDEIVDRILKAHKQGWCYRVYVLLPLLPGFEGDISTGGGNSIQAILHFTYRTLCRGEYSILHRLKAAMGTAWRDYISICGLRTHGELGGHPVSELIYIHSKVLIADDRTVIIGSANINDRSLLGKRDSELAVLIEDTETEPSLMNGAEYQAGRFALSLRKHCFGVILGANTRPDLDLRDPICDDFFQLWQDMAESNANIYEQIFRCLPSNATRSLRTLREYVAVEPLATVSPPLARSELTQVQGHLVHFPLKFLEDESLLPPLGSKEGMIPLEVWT

Row | Compound | increase in Caspase 3 and 7 activity ([1]; 10% FBS) | Caspase 3 and 7 activity [1] | IC50 [2] | IC50 [3] | Fold PLD2 Selective [4] | plasma protein binding (% bound) [5]
1 | C[C@@H](CN1CCC(n2c(=O)[nH]c3cc(Br)ccc32)CC1)NC(=O)[C@H]1C[C@@H]1c1ccccc1 [compound 14] | marginal increase; also recorded: fairly resistant to PLD inhibitor treatment | increased Caspase 3 & 7 activity | – | – | – | –
2 | C[C@@H](CN1CCC2(CC1)C(=O)NCN2c1ccc(F)c(F)c1)NC(=O)c1ccc2ccccc2c1.O=C(O)C(F)(F)F [24a, (S)-N-(1-(1-(3,4-difluorophenyl)-4-oxo-1,3,8-triazaspiro[4.5]decan-8-yl)propan-2-yl)-2-naphthamide 2,2,2-trifluoroacetate] | – | – | 0.12 µM | 2.8 µM | 23 fold | –
3 | O=C(NCCN1CCC2(CC1)C(=O)NCN2c1cccc(F)c1)c1ccc2ccccc2c1 [22a, N-(2-(1-(3-fluorophenyl)-4-oxo-1,3,8-triazaspiro[4.5]decan-8-yl)ethyl)-2-naphthamide] | – | increased Caspase 3 & 7 activity | – | – | – | 97.9 % bound
